Assay results as given in publication PMC7999182, “Interaction of Remdesivir with Clinically Relevant Hepatic Drug Uptake Transporters” (Pharmaceutics, 2021).

Tests used:
[1] = target: T1, OCT1 (Homo sapiens, UniProt O15245); experiment: Remdesivir uptake into HEK cells stably expressing OCT1 vs vector control; type: in vitro ADME; settings: 5 µM remdesivir, 10 min, transporter-expressing vs control HEK cells
T1 construct: expressed in transfected cells
T1 sequence (O15245 1-554): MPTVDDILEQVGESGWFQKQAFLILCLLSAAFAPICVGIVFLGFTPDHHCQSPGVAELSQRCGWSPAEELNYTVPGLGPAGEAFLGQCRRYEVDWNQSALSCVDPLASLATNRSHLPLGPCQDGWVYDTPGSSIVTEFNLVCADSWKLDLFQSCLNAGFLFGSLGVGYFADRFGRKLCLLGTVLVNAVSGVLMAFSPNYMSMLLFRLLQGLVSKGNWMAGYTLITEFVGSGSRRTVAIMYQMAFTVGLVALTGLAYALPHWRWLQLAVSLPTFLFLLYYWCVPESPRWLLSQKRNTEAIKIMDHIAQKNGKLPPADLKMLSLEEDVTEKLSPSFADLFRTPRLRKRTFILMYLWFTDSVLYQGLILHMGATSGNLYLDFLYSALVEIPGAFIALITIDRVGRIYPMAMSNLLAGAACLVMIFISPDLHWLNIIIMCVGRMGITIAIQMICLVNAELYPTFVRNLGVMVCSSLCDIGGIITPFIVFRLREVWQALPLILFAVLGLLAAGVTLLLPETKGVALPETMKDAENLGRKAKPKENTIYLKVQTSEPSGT
Description: (§1) Generation, cultivation and characterization of human embryonic kidney (HEK) cells stably expressing OATP1B1 refseq (=OATP1B1*1a), OATP1B1*1b, OATP1B1*5 and OATP1B1*15 [18], OATP1B3 [19], OATP2B1 [13] and OCT1 [20] have been described previously. OATP1B1 cells were cultivated in minimal essential medium (Life Technologies, Paisley, UK) and OATP1B3, OATP2B1 and OCT1 cells were cultivated in Dulbecco’s modified Eagle medium (Sigma, Darmstadt, Germany). Cultivation media were supplemented with 10% fetal calf serum, 100 U/mL penicillin and 100 µg/mL streptomycin. Cells were grown at 37 °C and 5% CO2. Functionality of the cells was confirmed by measuring uptake of prototypic substrates (see Section 2.3 and supplementary material).
Uptake assays were conducted at 37 °C according to previously described methods. For this, cells were seeded in 24-well plates (320,000 cells/well) and cultured for 2 days. Cells were then incubated for a further 24 h in culture medium with 5 mM butyrate (OATP1B3, OATP2B1, OCT1) or 10 mM butyrate (OATP1B1) to increase protein levels of recombinant transporters. […]
Remdesivir was determined by UHPLC-MS-MS analysis on an Agilent 1290 infinity UHPLC system coupled to an Agilent 6495B triple quadrupole mass spectrometer (Agilent, Waldbronn, Germany) similar to a recently published method. […]

[2] = target: T2, OATP1B1 (Homo sapiens, UniProt Q9Y6L6); experiment: Inhibition of OATP1B1-mediated BSP uptake; type: cell-based
T2 construct: expressed in transfected cells
T2 sequence (Q9Y6L6 1-691): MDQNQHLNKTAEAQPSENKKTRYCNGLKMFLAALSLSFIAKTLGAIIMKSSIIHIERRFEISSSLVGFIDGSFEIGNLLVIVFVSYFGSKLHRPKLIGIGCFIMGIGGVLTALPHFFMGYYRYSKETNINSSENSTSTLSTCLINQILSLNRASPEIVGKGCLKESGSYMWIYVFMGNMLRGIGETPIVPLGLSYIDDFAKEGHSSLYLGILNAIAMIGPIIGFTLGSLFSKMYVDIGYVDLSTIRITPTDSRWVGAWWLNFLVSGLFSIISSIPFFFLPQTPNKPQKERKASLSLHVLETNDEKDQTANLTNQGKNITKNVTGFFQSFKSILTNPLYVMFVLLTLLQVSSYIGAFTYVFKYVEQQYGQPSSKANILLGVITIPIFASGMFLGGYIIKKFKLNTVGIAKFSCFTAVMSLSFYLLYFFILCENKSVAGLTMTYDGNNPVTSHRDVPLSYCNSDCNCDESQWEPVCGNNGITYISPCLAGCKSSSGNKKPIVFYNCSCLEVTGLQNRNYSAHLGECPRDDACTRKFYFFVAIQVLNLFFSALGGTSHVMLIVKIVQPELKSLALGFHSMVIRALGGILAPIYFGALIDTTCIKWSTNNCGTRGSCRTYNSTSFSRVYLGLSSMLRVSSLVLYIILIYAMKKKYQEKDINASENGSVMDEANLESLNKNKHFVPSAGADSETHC
Description: as §1
Prototypic substrate uptake was performed as described previously. For this, uptake solutions contained the respective substrate with tracer amounts of radiolabeled substrate. In case of inhibition studies, uptake solutions additionally contained different concentrations of remdesivir. […] Cells were then lysed with 0.2% sodium dodecyl sulfate and intracellular radioactivity was measured by liquid scintillation counting (Tricarb2800, PerkinElmer Life Sciences GmbH, Rodgau, Germany or Hidex 300SL TDCR liquid scintillation counter, Turku, Finland). […]

SMILES: CCC(CC)COC(=O)[C@H](C)N[P@](=O)(OC[C@H]1O[C@@](C#N)(c2ccc3c(N)ncnn23)[C@H](O)[C@@H]1O)Oc1ccccc1 [Remdesivir]
- Remdesivir uptake ratio [1]: 1.2
- Effect on prototypic substrate uptake ([2]; 0.05 µM BSP, 10 min uptake, different remdesivir concentrations): significant concentration-dependent inhibitory effect
- Transporter inhibition at 10 µM ([2]; 10 µM remdesivir, BSP as substrate): inhibition
